Test systems include ACHN; COLO 205; EKVX; HCT-116; KM12; LOX IMVI; M14; MDA-MB-231; MDA-MB-435; MDA-N; Malme-3M; NCI-H23; NCI/ADR-RES; SF-268; SF-539; SK-MEL-5; SNB-75; SR; SW-620; UACC-257.
Holding throughout (assay): DTP human tumour cell line panel, 48 h

The structures appear in SMILES notation.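 Cells were grown in 96-well plates and exposed to each compound for 48 hours at five concentrations; endpoints were interpolated linearly between bracketing concentrations, or set to the highest concentration if not reached. GI50: concentration for 50% inhibition of growth.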 Calls of active or inactive are those of the source. No stated cut-off is given here; in the data, active = GI50 up to about 1.1 µM and inactive = higher.

The term GI50 denotes the concentration that inhibits growth by half. `Cn1c(=O)cc(NCCc2ccccc2)[nH]c1=O`: the GI50 in the assay on ACHN is 39.3 µM (inactive); in the assay with COLO 205, 31.6 µM (inactive); with EKVX, 54.7 µM (inactive); in the assay with HCT-116, 34.2 µM (inactive); in the assay on KM12, 15.3 µM (inactive); with LOX IMVI, 46.6 µM (inactive). The GI50 is 27.8 µM (inactive) in the assay on M14; 12.3 µM (inactive) in the assay on MDA-MB-231; 5.46 µM (inactive) in the assay with MDA-MB-435; 3.7 µM (inactive) in the assay with MDA-N; 34.8 µM (inactive) in the assay on Malme-3M; 91.8 µM (inactive) in the assay on NCI-H23. Further, the GI50 with NCI/ADR-RES is 24.7 µM (inactive); in the assay with SF-268 it was > 100 µM (inactive); with SF-539, 39.4 µM (inactive); in the assay on SK-MEL-5, 18.8 µM (inactive); in the assay on SNB-75, 19.9 µM (inactive); in the assay on SR it was 9.1 µM (inactive). Further, the GI50 in the assay on SW-620 was 27.5 µM (inactive); in the assay on UACC-257, 50 µM (inactive).

With `COC(=O)c1cc(=O)nc2sc3cccc(C)c3n12`, the GI50 in the assay with ACHN is 20.9 µM (inactive); with COLO 205 it was 14.3 µM (inactive); in the assay on EKVX it was 29.6 µM (inactive); in the assay with HCT-116 it was 28.8 µM (inactive); in the assay with KM12, > 100 µM (inactive); in the assay with LOX IMVI it was 14.8 µM (inactive). Further, the GI50 in the assay on M14 was 33.1 µM (inactive); in the assay with MDA-MB-231, 24.8 µM (inactive); with MDA-MB-435, 42 µM (inactive); in the assay with MDA-N, 44 µM (inactive); in the assay on Malme-3M, 23.9 µM (inactive); in the assay with NCI-H23, 55 µM (inactive). Besides, the GI50 in the assay with NCI/ADR-RES is > 100 µM (inactive); in the assay with SF-268 it was 61.1 µM (inactive); with SF-539, 34.1 µM (inactive); with SK-MEL-5, 60.7 µM (inactive); in the assay on SNB-75 it was > 100 µM (inactive); in the assay with SR it was 24 µM (inactive). The GI50 with SW-620 was 30.3 µM (inactive); in the assay with UACC-257 it was 65 µM (inactive).

For the compound `COc1ccccc1N/C(=C\C(=O)C(=O)NC12CC3CC(CC(C3)C1)C2)c1ccccc1`, the GI50 in the assay on ACHN, with COLO 205, in the assay on EKVX, in the assay on KM12, in the assay with LOX IMVI and in the assay on M14 was > 10 µM (inactive) each time. Further, the GI50 in the assay with MDA-MB-231 was > 10 µM (inactive); with MDA-MB-435, 7.21 µM (inactive); in the assay with MDA-N it was > 10 µM (inactive); with Malme-3M it was 3.36 µM (inactive); with NCI-H23, > 10 µM (inactive); in the assay on NCI/ADR-RES it was > 10 µM (inactive). Besides, the GI50 in the assay with SF-268, with SF-539, in the assay with SK-MEL-5, in the assay on SNB-75, in the assay on SR and with SW-620 was > 10 µM (inactive) each time. Further, the GI50 in the assay on UACC-257 is 9.46 µM (inactive).

In the case of `Cc1cc2c(cc1C)C(=O)C1(C2)Cc2c(ccc(C)c2C)C1=O` (stereo not drawn), the GI50 in the assay with ACHN, in the assay on COLO 205, with EKVX, with HCT-116, with KM12 and in the assay on LOX IMVI was > 100 µM (inactive) in each case. Moreover, the GI50 in the assay on M14 is > 100 µM (inactive); in the assay on MDA-MB-231 it was > 100 µM (inactive); in the assay on MDA-MB-435 it was > 100 µM (inactive); in the assay with MDA-N, > 100 µM (inactive); with Malme-3M, 98.6 µM (inactive); in the assay with NCI/ADR-RES, > 100 µM (inactive). For the same compound, the GI50 was 90.8 µM (inactive) in the assay with SF-268; 36.6 µM (inactive) with SF-539; > 100 µM (inactive) with SK-MEL-5; 64.6 µM (inactive) with SNB-75; > 100 µM (inactive) in the assay on SR; > 100 µM (inactive) with SW-620. The GI50 with UACC-257 is > 100 µM (inactive).

Regarding `C=C(C)[C@@H](C(=O)OC)N1C(=O)c2ccccc2C1=O`, the GI50 in the assay on ACHN, in the assay with COLO 205, in the assay with EKVX, in the assay on HCT-116, in the assay with KM12 and in the assay on LOX IMVI was > 100 µM (inactive) throughout. Besides, the GI50 in the assay with M14, in the assay with MDA-MB-231, in the assay with MDA-MB-435, with MDA-N, in the assay with Malme-3M and in the assay with NCI-H23 was > 100 µM (inactive) in each case. Besides, the GI50 in the assay on NCI/ADR-RES, in the assay with SF-268, with SF-539, in the assay with SK-MEL-5, with SNB-75 and in the assay with SR was > 100 µM (inactive) in each case. Besides, the GI50 in the assay on SW-620 and in the assay with UACC-257 was > 100 µM (inactive) in each case.

Take `CC(C)(C)[Si](C)(C)OCC1OC(n2cnc3c(N)ncnc32)C(O)C1O` (stereo not drawn): the GI50 in the assay with ACHN is > 100 µM (inactive); in the assay with COLO 205, > 100 µM (inactive); with EKVX it was > 100 µM (inactive); in the assay on HCT-116, > 100 µM (inactive); in the assay on KM12, 37.3 µM (inactive); in the assay on LOX IMVI it was > 100 µM (inactive). Also, the GI50 with M14 is > 100 µM (inactive); in the assay on MDA-MB-231, 96.4 µM (inactive); with MDA-MB-435 it was > 100 µM (inactive); in the assay with MDA-N, > 100 µM (inactive); in the assay with Malme-3M, > 100 µM (inactive); with NCI-H23 it was 71 µM (inactive). In addition, the GI50 is 87.7 µM (inactive) in the assay on NCI/ADR-RES; > 100 µM (inactive) in the assay on SF-268; > 100 µM (inactive) in the assay on SF-539; 26.5 µM (inactive) in the assay with SK-MEL-5; 59.8 µM (inactive) with SNB-75; 60.8 µM (inactive) with SR. For the same compound, the GI50 with SW-620 and in the assay with UACC-257 was > 100 µM (inactive) throughout.

`CC(NCc1c(O)ccc2c(-c3ccccc3)cc(=O)oc12)C(=O)O` (stereo not drawn): the GI50 in the assay with ACHN, with COLO 205, in the assay with EKVX, in the assay with HCT-116, in the assay on KM12 and in the assay on LOX IMVI was > 100 µM (inactive) in each case. In addition, the GI50 with M14, in the assay on MDA-MB-231, in the assay with MDA-MB-435, in the assay on MDA-N, in the assay with Malme-3M and in the assay on NCI-H23 was > 100 µM (inactive) throughout. Also, the GI50 in the assay on NCI/ADR-RES, with SF-268, in the assay with SF-539, with SK-MEL-5, in the assay on SNB-75 and with SR was > 100 µM (inactive) each time. Also, the GI50 with SW-620 and in the assay with UACC-257 was > 100 µM (inactive) each time.

As to `Cc1ccc(NC(=O)c2ccc(OP(=O)(O)Nc3ccc(C)cc3)cc2)cc1`, the GI50 with ACHN, with COLO 205, with EKVX, with HCT-116, in the assay with KM12 and in the assay on LOX IMVI was > 100 µM (inactive) in each case. Also, the GI50 with M14 is 64.4 µM (inactive); in the assay with MDA-MB-231, > 100 µM (inactive); in the assay on MDA-MB-435, > 100 µM (inactive); in the assay with MDA-N, > 100 µM (inactive); in the assay on Malme-3M, > 100 µM (inactive); with NCI-H23, > 100 µM (inactive). For the same compound, the GI50 in the assay on NCI/ADR-RES, with SF-268, with SF-539, in the assay with SK-MEL-5, in the assay with SNB-75 and in the assay on SR was > 100 µM (inactive) in each case. Also, the GI50 in the assay with SW-620 and with UACC-257 was > 100 µM (inactive) each time.

Turning to `CC(O)c1cc2c(s1)C(=O)c1scc(C(C)O)c1C2=O` (stereo not drawn), the GI50 is 0.853 µM (active) in the assay on ACHN; 1.91 µM (inactive) with COLO 205; 0.991 µM (active) in the assay on EKVX; 0.659 µM (active) in the assay on HCT-116; 1.79 µM (inactive) in the assay with KM12; 0.172 µM (active) in the assay on LOX IMVI. In addition, the GI50 was 0.19 µM (active) in the assay with M14; 0.316 µM (active) in the assay with MDA-MB-231; 0.175 µM (active) in the assay with MDA-MB-435; 0.186 µM (active) in the assay on MDA-N; 0.172 µM (active) in the assay on Malme-3M; 0.191 µM (active) with NCI-H23. Further, the GI50 with NCI/ADR-RES is 0.283 µM (active); in the assay with SF-268, 0.28 µM (active); with SF-539, 0.23 µM (active); in the assay on SK-MEL-5, 0.156 µM (active); in the assay on SNB-75, 0.29 µM (active); with SR, 0.271 µM (active). The GI50 in the assay with SW-620 was 0.321 µM (active); in the assay with UACC-257, 0.176 µM (active).

For the compound `O=C(Nc1ccn(C2CCC(COC(c3ccccc3)(c3ccccc3)c3ccccc3)O2)c(=O)n1)c1ccccc1` (stereo not drawn), the GI50 was 3.8 µM (inactive) in the assay on ACHN; 1.77 µM (inactive) in the assay on COLO 205; 5.11 µM (inactive) in the assay on EKVX; 3.33 µM (inactive) in the assay on HCT-116; 5.87 µM (inactive) in the assay on KM12; 2.72 µM (inactive) in the assay on LOX IMVI. For the same compound, the GI50 in the assay on M14 was 3.48 µM (inactive); in the assay with MDA-MB-231, 5.87 µM (inactive); in the assay on MDA-MB-435, 3.42 µM (inactive); with MDA-N it was 3.57 µM (inactive); in the assay on Malme-3M, 3.18 µM (inactive); in the assay with NCI-H23, 2.31 µM (inactive). Further, the GI50 with NCI/ADR-RES was 2.72 µM (inactive); in the assay on SF-268, 7.64 µM (inactive); in the assay with SF-539, 3.43 µM (inactive); in the assay with SK-MEL-5 it was 2.78 µM (inactive); in the assay with SNB-75 it was 2.39 µM (inactive); in the assay with SR it was 2.34 µM (inactive). Moreover, the figures for the GI50 in the assay on SW-620 and in the assay on UACC-257 were 4.94 µM (inactive) and 6.81 µM (inactive), respectively.

(Values after ChEMBL document CHEMBL1201862, “PubChem BioAssay data set” (2004).)
